Source: US10322108B2, “N-benzoate group substituted benzopyrroline-2-one derivative and use thereof” (BEIJING HANMI PHARMACEUTICAL CO., LTD., priority 2015, dated 2019)

The compounds below were run against RORγ-LBD (Homo sapiens (Human), UniProt P51449) (assay: LanthaScreen TR-FRET screening of RORγ-LBD / co-activator (Fluorescein-D22) interaction). Conditions: not given.
Sequence of RORγ-LBD (P51449 269-508): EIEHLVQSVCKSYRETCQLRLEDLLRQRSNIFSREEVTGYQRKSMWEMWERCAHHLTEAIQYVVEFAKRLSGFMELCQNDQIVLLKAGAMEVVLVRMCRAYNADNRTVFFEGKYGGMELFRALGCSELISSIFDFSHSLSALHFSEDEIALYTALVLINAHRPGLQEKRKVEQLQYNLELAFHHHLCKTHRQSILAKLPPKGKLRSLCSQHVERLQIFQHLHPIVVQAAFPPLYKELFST
`O=C(O)c1ccc(N2C(=O)/C(=C\c3c(Cl)cccc3C3CC3)c3c(-c4ccccc4)cccc32)cc1` [Example 13] gave an IC50 of 100 to 1000 nM.
Compound `Cc1cccc2c1/C(=C\c1c(Cl)cccc1C1CC1)C(=O)N2c1ccc(C(=O)O)cc1` [Example 2B, (trans)-4-(3-(2-chloro-6-cyclopropyl-benzylidene)-4-methylindolin-2-on-1-yl)-benzoic acid] has an IC50 of 100 to 1000 nM.
Work on `O=C(O)c1ccc(N2C(=O)/C(=C\c3c(Cl)cccc3C3CC3)c3c(Cl)cccc32)cc1O` [Example 14, 4-(3-(2-chloro-6-cyclopropyl-benzylidene)-4-chloro-indolin-2-on-1-yl)-2-hydroxybenzolic acid] yielded an IC50 of 100 to 1000 nM.
Work on `O=C(O)c1ccc(N2C(=O)/C(=C/c3c(F)cccc3Cl)c3c(F)cccc32)cc1` [Example 17B, (cis)-4-(3-(2-chloro-6-fluoro-benzylidene)-4-fluoro-indolin-2-on-1-yl)-benzoic acid] yielded an IC50 of 100 to 1000 nM.
`O=C(O)c1ccc(N2C(=O)/C(=C\c3c(F)cccc3Cl)c3c(F)cccc32)cc1` [Example 17A, (trans)-4-(3-(2-chloro-6-fluoro-benzylidene)-4-fluoro-indolin-2-on-1-yl)-benzoic acid] was tested, and the IC50 was 100 to 1000 nM.
`COc1cccc(Cl)c1/C=C1\C(=O)N(c2ccc(C(=O)O)cc2)c2cccc(C)c21` [Example 32, (trans)-4-(3-(2-chloro-6-methoxy-benzylidene)-4-methylindolin-2-on-1-yl)-benzoic acid] gave an IC50 of 1000 to 10000 nM.
Compound `Cc1cccc(Cl)c1/C=C1\C(=O)N(c2ccc(C(=O)O)cc2)c2cccc(C)c21` [Example 29, (trans)-4-(3-(2-chloro-6-methyl-benzylidene)-4-methylindolin-2-on-1-yl)-benzoic acid] has an IC50 of 100 to 1000 nM.
For `O=C(O)c1ccc(N2C(=O)/C(=C/c3c(F)cccc3F)c3c(F)cccc32)cc1` [Example 18B, (cis)-4-(3-(2,6-difluoro-benzylidene)-4-fluoro-indolin-2-on-1-yl)-benzoic acid], the IC50 was 1000 to 10000 nM.
With `CCCc1cccc(Cl)c1/C=C1/C(=O)N(c2ccc(C(=O)O)cc2)c2cccc(F)c21` [Example 20B, (cis)-4-(3-(2-chloro-6-n-propyl-benzylidene)-4-fluoro-indolin-2-on-1-yl)-benzoic acid] the IC50 was 100 to 1000 nM.
`O=C(O)c1ccc(N2C(=O)/C(=C/c3c(Cl)cccc3C3CC3)c3c(F)cccc32)cc1O` [Example 21B, (cis)-4-(3-(2-chloro-6-cyclopropyl-benzylidene)-4-fluoro-indolin-2-on-1-yl)-2-hydroxy-benzoic acid] showed an IC50 of 100 to 1000 nM.
For `CCCc1cccc(Cl)c1/C=C1\C(=O)N(c2ccc(C(=O)O)cc2)c2cccc(F)c21` [Example 20A, (trans)-4-(3-(2-chloro-6-n-propyl-benzylidene)-4-fluoro-indolin-2-on-1-yl)-benzoic acid], the IC50 was 100 to 1000 nM.
`Cc1cccc2c1/C(=C/c1c(Cl)cccc1C1CCC1)C(=O)N2c1ccc(C(=O)O)c(O)c1` [Example 35] was tested, and the IC50 was 100 to 1000 nM.
`COc1cccc2c1/C(=C/c1c(Cl)cccc1Cl)C(=O)N2c1ccc(C(=O)O)c(O)c1` [Example 11, (trans)-4-(3-(2,6-dichloro-benzylidene)-4-methoxyindolin-2-on-1-yl)-2-hydroxybenzolic acid] gave an IC50 of 100 to 1000 nM.
Compound `O=C(O)c1ccc(N2C(=O)/C(=C\c3c(F)cccc3F)c3c(F)cccc32)cc1` [Example 18A, (trans)-4-(3-(2,6-difluoro-benzylidene)-4-fluoro-indolin-2-on-1-yl)-benzoic acid] has an IC50 of 1000 to 10000 nM.
`COc1cccc2c1/C(=C/c1c(Cl)cccc1Cl)C(=O)N2c1ccc(C(=O)O)cc1` [Example 31, (trans)-4-(3-(2,6-dichloro-benzylidene)-4-methoxyindolin-2-on-1-yl)-benzoic acid] gave an IC50 of 1000 to 10000 nM.
With `Cc1cccc2c1/C(=C/c1c(Cl)cccc1C1CC1)C(=O)N2c1ccc(C(=O)O)c(F)c1` [Example 25, (trans)-4-(3-(2-chloro-6-cyclopropyl-benzylidene)-4-methylindolin-2-on-1-yl)-2-fluoro-benzoic acid] the IC50 was 100 to 1000 nM.
For `Cc1cccc2c1/C(=C/c1c(Cl)cccc1C1CC1)C(=O)N2c1ccc(C(=O)O)c(Cl)c1` [Example 24, (trans)-4-(3-(2-chloro-6-cyclopropyl-benzylidene)-4-methylindolin-2-on-1-yl)-2-chloro-benzoic acid], the IC50 was 100 to 1000 nM.
For `Cc1cccc2c1/C(=C/c1c(Cl)cccc1C1CC1)C(=O)N2c1ccc(C(=O)O)c(N)c1` [Example 33], the IC50 was 1000 to 10000 nM.

Same assay, conditions: read-out: IC50 Values; TR-FRET, 2 nM RORγ-LBD, 150 nM Fluorescein-D22 co-activator
For `CCc1cccc(Cl)c1/C=C1\C(=O)N(c2ccc(C(=O)O)c(O)c2)c2cccc(C)c21` [Example 37, (trans)-4-(3-(2-chloro-6-ethyl-benzylidene)-4-methylindolin-2-on-1-yl)-2-hydroxybenzolic acid], the IC50 was less than 100 nM.
Compound `COc1cccc2c1/C(=C/c1c(Cl)cccc1C1CC1)C(=O)N2c1ccc(C(=O)O)cc1` [Example 30] has an IC50 of less than 100 nM.
Compound `O=C(O)c1ccc(N2C(=O)/C(=C\c3c(Cl)cccc3C(F)(F)F)c3c(F)cccc32)cc1` [Example 19A, (trans)-4-(3-(2-chloro-6-trifluoromethyl-benzylidene)-4-fluoro-indolin-2-on-1-yl)-benzoic acid] has an IC50 of less than 100 nM.
Work on `COc1cccc2c1/C(=C/c1c(Cl)cccc1C1CC1)C(=O)N2c1ccc(C(=O)O)c(O)c1` [Example 8] yielded an IC50 of less than 100 nM.
`O=C(O)c1ccc(N2C(=O)/C(=C\c3c(Cl)cccc3Cl)c3c(F)cccc32)cc1O` [Example 22A, (trans)-4-(3-(2,6-dichloro-benzylidene)-4-fluoro-indolin-2-on-1-yl)-2-hydroxy-benzoic acid] gave an IC50 of less than 100 nM.
`Cc1cccc2c1/C(=C/c1c(Cl)cccc1Cl)C(=O)N2c1ccc(C(=O)O)cc1` [Example 5, (trans)-4-(3-(2,6-dichlorobenzylidene)-4-methylindolin-2-on-1-yl)-benzoic acid] gave an IC50 of less than 100 nM.
With `O=C(O)c1ccc(N2C(=O)/C(=C/c3c(Cl)cccc3Cl)c3c(F)cccc32)cc1O` [Example 22B, (cis)-4-(3-(2,6-dichloro-benzylidene)-4-fluoro-indolin-2-on-1-yl)-2-hydroxy-benzoic acid] the IC50 was less than 100 nM.
Work on `Cc1cccc2c1/C(=C/c1c(F)cccc1Cl)C(=O)N2c1ccc(C(=O)O)c(O)c1` [Example 9] yielded an IC50 of less than 100 nM.
`O=C(O)c1ccc(N2C(=O)/C(=C\c3c(Cl)cccc3Cl)c3c(Cl)cccc32)cc1` [Example 23, (trans)-4-(3-(2,6-dichloro-benzylidene)-4-chloro-indolin-2-on-1-yl)-benzoic acid] was tested, and the IC50 was less than 100 nM.
Compound `Cc1cccc2c1/C(=C/c1c(Cl)cccc1Br)C(=O)N2c1ccc(C(=O)O)c(O)c1` [Example 7, (trans)-4-(3-(2-chloro-6-bromo-benzylidene)-4-methylindolin-2-on-1-yl)-2-hydroxybenzolic acid] has an IC50 of less than 100 nM.
For `O=C(O)c1ccc(N2C(=O)/C(=C/c3c(Cl)cccc3C(F)(F)F)c3c(F)cccc32)cc1` [Example 19B, (cis)-4-(3-(2-chloro-6-trifluoromethyl-benzylidene)-4-fluoro-indolin-2-on-1-yl)-benzoic acid], the IC50 was less than 100 nM.
In the case of `Cc1cccc2c1/C(=C/c1c(Cl)cccc1C(C)C)C(=O)N2c1ccc(C(=O)O)c(O)c1` [Example 36, (trans)-4-(3-(2-chloro-6-isopropyl-benzylidene)-4-methylindolin-2-on-1-yl)-2-hydroxybenzolic acid], the IC50 is reported as less than 100 nM.
`Cc1cccc2c1/C(=C/c1c(Cl)cccc1C1CCC1)C(=O)N2c1ccc(C(=O)O)cc1` [Example 34] was tested, and the IC50 was less than 100 nM.
Work on `O=C(O)c1ccc(N2C(=O)/C(=C\c3c(Cl)cccc3C3CC3)c3c(F)cccc32)cc1` [Example 16A, (trans)-4-(3-(2-chloro-6-cyclopropyl-benzylidene)-4-fluoro-indolin-2-on-1-yl)-benzoic acid] yielded an IC50 of less than 100 nM.
For `Cc1cccc2c1/C(=C/c1c(Cl)cccc1C(F)(F)F)C(=O)N2c1ccc(C(=O)O)c(O)c1` [Example 6, (trans)-4-(3-(2-chloro-6-(trifluoromethyl)-benzylidene)-4-methylindolin-2-on-1-yl)-2-hydroxybenzoic acid], the IC50 was less than 100 nM.
In the case of `O=C(O)c1ccc(N2C(=O)/C(=C\c3c(Cl)cccc3C3CC3)c3c(C4CC4)cccc32)cc1O` [Example 12, (trans)-4-(3-(2-chloro-6-cyclopropyl-benzylidene)-4-cyclopropylindolin-2-on-1-yl)-2-hydroxybenzolic acid], the IC50 is reported as less than 100 nM.
Compound `O=C(O)c1ccc(N2C(=O)/C(=C\c3c(Cl)cccc3C3CC3)c3c(F)cccc32)cc1O` [Example 21A, (trans)-4-(3-(2-chloro-6-cyclopropyl-benzylidene)-4-fluoro-indolin-2-on-1-yl)-2-hydroxy-benzoic acid] has an IC50 of less than 100 nM.
